# From patent US9351918B2, “Polyglycerol-azelaic acid polyesters for cosmetic applications” (GIULIANI S.P.A., priority 2012, dated 2016)
# Experiments:
# [1] = test system: TNF-α gene expression in human keratinocytes NCTC 2544; test: Anti-inflammatory test on NCTC2544: TNF-α gene expression by RT-PCR with LPS from E. coli; type: cell-based; settings: 20 μM together with LPS 5 μg/ml, 24 hours
# Description: The anti-inflammatory effects were investigated of polyglyceryl-3 azelaiate oligomers (POLY-AZ) obtained with the method in Example 1 in an in vitro model of inflammation on human keratinocytes NCTC2544, and using lipopolysaccharide
# (LPS) from E. coli to mediate inflammation or irritation. The effect of the derivative in the models used was compared with that of azelaic acid (AZ-ACID), a known anti-inflammatory agent.
# (§1) The TNF-α gene expression in NCTC 2544 was evaluated using RT-PCR.
# There are four phases to the gene expression analysis:
# 1. Treatment of cells with active compounds for 16, 24 and 48 hours; […]
# (§2) The extracted and quantified total RNA was amplified using the “High Capacity cDNA Reverse Transcription Kit” (Applied Biosystems). […]
# (§3) The relative quantification method was used which compares the relative concentration of the gene of interest (target) in unknown samples to a calibrator or control sample (untreated cells). […]
# (§4) The data provided by the Stratagene Mx3000P tool was recorded by the MXpro v.4.01 software. […]
# Following the preliminary model validation experiment described above, the TNF-α gene expression was evaluated using RT-PCR on NCTC 2544 cells, after treatments with 20 μM of polyglyceryl-3-azelaiate and 20 μM of azelaic acid together with LPS at 5 μg/ml in the culture medium to evaluate the anti-inflammatory effect of the two compounds. […]
# [2] = test system: TNF-α gene expression in human keratinocytes NCTC 2544; test: Test of irritancy potential in NCTC2544: TNF-α gene expression by RT-PCR, compared with LPS positive control; type: cell-based; settings: 20 μM, 24 hours
# Description: The irritant potential of the derivative (POLY-AZ) was also determined in vitro compared with a positive control (cells treated with 5 μg/ml of lipopolysaccharide). The results were compared with those obtained using azelaic acid (AZ-ACID) in the same experimental model.
# as §1
# Test of Irritancy Potential in NCTC2544
# When the cells (human keratinocytes NCTC 2544) reached approximately 80% confluence, they were separated with trypsin/EDTA and seeded at a density of 1×10^6 cells/ml in a 12-well plate and then incubated at 37° C., 5% CO2 (24 hours).
# Day 2: 24-Hour Exposure to Substances […]
# as §2, §3, §4
# The TNF-α gene expression in NCTC 2544 cells was also evaluated after treatments with 20 μM of polyglyceryl-3-azelaiate and 20 μM of azelaic acid compared with cells treated with LPS (5 μg/ml) in the culture medium, in order to compare the effects of these compounds against a known irritant agent (LPS). […]
smiles,measurement,setting,value
"O=C(O)CCCCCCCC(=O)O [azelaic acid, nonanedioic acid]",Inhibitory effect on TNF-α gene expression (anti-inflammatory effect),[1],does not produce an inhibitory effect
same,Irritancy potential,[2],neither are irritating
